Some targets named below: ATM (Homo sapiens, UniProt Q13315); BMX (Homo sapiens, UniProt P51813); CAMK4 (Homo sapiens, UniProt Q16566); CDC42BPB (Homo sapiens, UniProt Q9Y5S2); CHEK1 (Homo sapiens, UniProt O14757); FES (Homo sapiens, UniProt P07332); MAP3K3 (Homo sapiens, UniProt Q99759); MAP3K6 (Homo sapiens, UniProt O95382); MAPK8 (Homo sapiens, UniProt P45983); MARK1 (Homo sapiens, UniProt Q9P0L2); MERTK (Homo sapiens, UniProt Q12866); MINK1 (Homo sapiens, UniProt Q8N4C8); MKNK2 (Homo sapiens, UniProt Q9HBH9); NRK (Homo sapiens, UniProt Q7Z2Y5); OXSR1 (Homo sapiens, UniProt O95747); RIPK2 (Homo sapiens, UniProt O43353); SLK (Homo sapiens, UniProt Q9H2G2); TAOK2 (Homo sapiens, UniProt Q9UL54); TAOK3 (Homo sapiens, UniProt Q9H2K8); TNIK (Homo sapiens, UniProt Q9UKE5); TP53RK (Homo sapiens, UniProt Q96S44).

Common to all, as to assay: biochemical
Design in all cases: species or system HEK293/K-562/placenta mixed human extract; Kinobeads chemoproteomic competition binding, quantified by TMT LC-MS/MS, dose response up to 20 uM

Chain of RIPK2 (O43353 whole entry): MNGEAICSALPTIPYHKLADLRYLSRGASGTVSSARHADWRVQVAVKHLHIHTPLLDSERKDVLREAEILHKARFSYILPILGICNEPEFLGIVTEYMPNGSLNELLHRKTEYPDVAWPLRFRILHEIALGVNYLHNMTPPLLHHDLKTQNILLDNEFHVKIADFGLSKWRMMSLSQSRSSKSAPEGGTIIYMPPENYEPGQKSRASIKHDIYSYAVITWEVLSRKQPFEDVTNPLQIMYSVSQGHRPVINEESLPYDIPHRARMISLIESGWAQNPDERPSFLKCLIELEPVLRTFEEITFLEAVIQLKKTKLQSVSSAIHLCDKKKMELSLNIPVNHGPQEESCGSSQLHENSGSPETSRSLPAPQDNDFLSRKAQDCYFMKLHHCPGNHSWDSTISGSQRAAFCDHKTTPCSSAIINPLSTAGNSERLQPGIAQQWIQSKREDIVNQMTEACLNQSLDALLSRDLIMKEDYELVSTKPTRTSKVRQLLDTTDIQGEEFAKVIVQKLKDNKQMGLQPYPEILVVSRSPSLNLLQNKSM
Chain of MERTK (Q12866 whole entry): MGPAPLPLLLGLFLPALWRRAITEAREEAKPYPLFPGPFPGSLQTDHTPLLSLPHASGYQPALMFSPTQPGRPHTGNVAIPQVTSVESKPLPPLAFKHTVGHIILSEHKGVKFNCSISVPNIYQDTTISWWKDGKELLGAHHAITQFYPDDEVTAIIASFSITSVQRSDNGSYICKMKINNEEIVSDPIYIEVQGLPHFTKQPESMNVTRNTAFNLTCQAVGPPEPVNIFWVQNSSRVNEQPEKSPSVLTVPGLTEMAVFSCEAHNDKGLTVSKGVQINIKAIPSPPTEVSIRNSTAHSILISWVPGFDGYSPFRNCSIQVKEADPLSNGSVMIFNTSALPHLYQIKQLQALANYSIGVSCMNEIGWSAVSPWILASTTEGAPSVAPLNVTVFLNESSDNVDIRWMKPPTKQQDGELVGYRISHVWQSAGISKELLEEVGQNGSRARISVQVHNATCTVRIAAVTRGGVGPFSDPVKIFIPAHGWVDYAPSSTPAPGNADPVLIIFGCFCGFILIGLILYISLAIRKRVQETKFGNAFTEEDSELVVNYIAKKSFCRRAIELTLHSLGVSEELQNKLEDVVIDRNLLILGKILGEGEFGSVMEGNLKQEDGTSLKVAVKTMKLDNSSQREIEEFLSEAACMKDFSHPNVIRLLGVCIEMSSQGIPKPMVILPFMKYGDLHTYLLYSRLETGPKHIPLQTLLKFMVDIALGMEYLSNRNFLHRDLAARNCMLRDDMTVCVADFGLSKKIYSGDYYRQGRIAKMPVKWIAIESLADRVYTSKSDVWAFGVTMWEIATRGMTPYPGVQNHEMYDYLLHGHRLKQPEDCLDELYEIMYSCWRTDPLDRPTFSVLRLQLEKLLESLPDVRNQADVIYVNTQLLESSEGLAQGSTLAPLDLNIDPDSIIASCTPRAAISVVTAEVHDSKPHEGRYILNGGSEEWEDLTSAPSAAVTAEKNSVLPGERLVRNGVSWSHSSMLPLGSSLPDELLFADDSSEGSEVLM
Chain of TNIK (Q9UKE5 whole entry): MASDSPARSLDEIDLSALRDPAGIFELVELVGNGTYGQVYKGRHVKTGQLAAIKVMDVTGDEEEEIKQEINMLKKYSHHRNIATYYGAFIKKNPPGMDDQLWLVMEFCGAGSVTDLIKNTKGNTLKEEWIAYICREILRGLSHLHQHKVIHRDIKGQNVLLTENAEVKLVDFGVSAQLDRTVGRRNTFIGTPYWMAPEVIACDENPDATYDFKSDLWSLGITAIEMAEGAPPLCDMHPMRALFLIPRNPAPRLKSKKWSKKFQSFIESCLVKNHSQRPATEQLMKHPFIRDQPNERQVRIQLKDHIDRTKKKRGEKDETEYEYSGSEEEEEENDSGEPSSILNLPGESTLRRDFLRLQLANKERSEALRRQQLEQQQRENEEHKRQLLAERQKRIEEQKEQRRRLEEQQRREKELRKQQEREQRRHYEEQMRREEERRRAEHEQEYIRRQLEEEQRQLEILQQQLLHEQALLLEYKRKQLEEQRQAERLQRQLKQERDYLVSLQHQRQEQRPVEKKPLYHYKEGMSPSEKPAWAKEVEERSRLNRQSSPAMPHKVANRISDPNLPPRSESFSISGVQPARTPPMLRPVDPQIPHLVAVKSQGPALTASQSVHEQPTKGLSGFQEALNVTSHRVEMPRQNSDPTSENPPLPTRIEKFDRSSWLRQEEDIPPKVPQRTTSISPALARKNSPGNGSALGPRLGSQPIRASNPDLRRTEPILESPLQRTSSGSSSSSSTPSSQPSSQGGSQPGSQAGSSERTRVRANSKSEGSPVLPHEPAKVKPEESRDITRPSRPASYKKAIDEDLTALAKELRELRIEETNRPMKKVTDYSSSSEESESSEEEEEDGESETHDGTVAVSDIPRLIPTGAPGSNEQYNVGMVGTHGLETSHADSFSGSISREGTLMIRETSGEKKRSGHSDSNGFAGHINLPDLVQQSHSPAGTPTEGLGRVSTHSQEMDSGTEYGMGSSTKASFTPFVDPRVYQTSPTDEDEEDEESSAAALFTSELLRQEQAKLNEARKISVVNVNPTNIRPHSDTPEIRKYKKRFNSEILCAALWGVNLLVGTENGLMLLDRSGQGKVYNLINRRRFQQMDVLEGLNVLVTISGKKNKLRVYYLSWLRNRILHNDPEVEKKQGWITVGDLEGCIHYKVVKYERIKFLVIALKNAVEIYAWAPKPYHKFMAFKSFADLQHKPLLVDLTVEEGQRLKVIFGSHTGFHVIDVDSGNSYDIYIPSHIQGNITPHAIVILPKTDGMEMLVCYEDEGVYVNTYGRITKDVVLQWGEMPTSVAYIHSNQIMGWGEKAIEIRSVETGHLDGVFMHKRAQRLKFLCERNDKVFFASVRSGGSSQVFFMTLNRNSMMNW
Chain of BMX (P51813 whole entry): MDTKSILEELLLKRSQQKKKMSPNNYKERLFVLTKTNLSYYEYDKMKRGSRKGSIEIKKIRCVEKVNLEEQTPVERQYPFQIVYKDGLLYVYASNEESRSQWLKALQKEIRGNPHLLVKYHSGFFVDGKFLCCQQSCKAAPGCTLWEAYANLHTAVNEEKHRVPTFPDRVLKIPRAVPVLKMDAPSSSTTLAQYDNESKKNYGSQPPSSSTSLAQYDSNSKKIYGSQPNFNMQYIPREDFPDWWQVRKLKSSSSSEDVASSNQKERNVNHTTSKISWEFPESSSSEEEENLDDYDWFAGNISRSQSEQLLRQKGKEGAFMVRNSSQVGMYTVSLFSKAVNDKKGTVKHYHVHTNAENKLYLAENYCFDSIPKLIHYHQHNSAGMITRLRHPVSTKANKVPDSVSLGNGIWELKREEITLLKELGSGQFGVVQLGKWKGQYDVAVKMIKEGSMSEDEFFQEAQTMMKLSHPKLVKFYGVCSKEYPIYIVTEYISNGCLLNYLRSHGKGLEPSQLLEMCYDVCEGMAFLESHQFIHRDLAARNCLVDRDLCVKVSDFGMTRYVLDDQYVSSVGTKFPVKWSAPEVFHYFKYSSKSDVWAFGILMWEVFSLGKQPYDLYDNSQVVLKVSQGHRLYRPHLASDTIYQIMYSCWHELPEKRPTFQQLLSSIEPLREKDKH
Chain of TAOK3 (Q9H2K8 whole entry): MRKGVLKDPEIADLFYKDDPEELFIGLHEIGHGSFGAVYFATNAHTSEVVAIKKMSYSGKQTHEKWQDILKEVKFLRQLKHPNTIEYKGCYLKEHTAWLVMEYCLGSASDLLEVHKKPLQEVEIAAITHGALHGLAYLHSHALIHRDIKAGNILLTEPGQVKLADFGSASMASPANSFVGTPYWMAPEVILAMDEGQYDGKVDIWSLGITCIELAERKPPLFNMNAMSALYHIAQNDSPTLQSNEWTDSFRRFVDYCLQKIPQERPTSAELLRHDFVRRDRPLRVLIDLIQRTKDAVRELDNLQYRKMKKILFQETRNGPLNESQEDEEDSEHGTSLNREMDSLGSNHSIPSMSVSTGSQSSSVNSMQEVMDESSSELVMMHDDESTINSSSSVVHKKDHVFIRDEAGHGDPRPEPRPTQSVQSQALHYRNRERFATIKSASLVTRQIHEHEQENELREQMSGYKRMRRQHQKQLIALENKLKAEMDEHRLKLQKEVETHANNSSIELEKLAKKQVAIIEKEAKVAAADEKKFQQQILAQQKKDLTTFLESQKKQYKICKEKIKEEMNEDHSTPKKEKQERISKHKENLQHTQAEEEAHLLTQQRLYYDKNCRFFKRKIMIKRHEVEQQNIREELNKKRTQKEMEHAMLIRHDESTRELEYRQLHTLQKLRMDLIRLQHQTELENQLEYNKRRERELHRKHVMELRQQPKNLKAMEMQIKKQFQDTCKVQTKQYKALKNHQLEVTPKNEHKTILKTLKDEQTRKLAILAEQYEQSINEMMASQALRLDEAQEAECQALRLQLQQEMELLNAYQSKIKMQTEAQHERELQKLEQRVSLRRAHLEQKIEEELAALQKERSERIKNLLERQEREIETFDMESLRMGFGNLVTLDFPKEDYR
Chain of TP53RK (Q96S44 whole entry): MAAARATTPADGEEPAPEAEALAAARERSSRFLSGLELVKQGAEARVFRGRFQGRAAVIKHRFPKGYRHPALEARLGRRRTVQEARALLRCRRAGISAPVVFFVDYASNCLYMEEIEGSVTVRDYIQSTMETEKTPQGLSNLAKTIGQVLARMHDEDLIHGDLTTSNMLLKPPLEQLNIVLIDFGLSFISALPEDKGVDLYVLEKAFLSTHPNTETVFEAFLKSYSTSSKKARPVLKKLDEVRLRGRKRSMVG

By IC50 is commonly meant the concentration that gives 50% inhibition. On to `COc1ccccc1-c1n[nH]c2nc(N[C@H]3CC[C@H](NS(=O)(=O)CCC(F)(F)F)CC3)nc(OC)c12` [compound 31, 3,3,3-Trifluoro-N-(trans-4-((4-methoxy-3-(2-methoxyphenyl)-1H-pyrazolo[3,4-d]pyrimidin-6-yl)amino)cyclohexyl)propane-1-sulfonamide], for which the concentration for half-maximal inhibition (IC50) on ATM, on BMX, at CAMK4, at CDC42BPB, at CHEK1 and at FES was at least 20 µM in each case. Also, the IC50 at MAP3K3, on MAP3K6, on MAPK8, on MARK1, at MERTK and at MINK1 was at least 20 µM throughout. Further, the IC50 was at least 20 µM on MKNK2; at least 20 µM on NRK; at least 20 µM on OXSR1; at least 20 µM at RIPK2; at least 20 µM at SLK; 5.2 µM at TAOK2. Also, the IC50 is 0.93 µM at TAOK3, at least 20 µM on TNIK and at least 20 µM on TP53RK.
